This is an account of results in patent US20250228848A1, “PROCESS FOR MAKING A KRAS G12C INHIBITOR” (ELI LILLY AND COMPANY, priority 2022, published 2025).

Like-named read-outs stand apart in the source and are kept apart here. A value given as a limit tells only on which side of the number the result lay.

One assay concerns the target KRas G12C (Homo sapiens, UniProt P01116, G12C). The assay is described as follows: KRas G12C Probe Occupancy TR-FRET Assay. Type of assay: binding. The following applies: for IC50 concentrations relative to Examples 1, 3, 5, and 7 (the P atropisomer designations): comparison of M with P atropisomers, Table 3. The source says: The purpose of this assay is to measure the ability of an inhibitor to compete with a probe for binding to and covalently modifying KRas G12C at codon 12. The signal is generated by the time-resolved transfer of fluorescence between europium on an antibody bound to KRas G12C Europium-labeled Anti-Histidine Tag Antibody LanthaScreen (the Eu Anti-His antibody) and fluorescent Tracer 647 (Alexa Fluor™) bound to KRas G12C through streptavidin and a biotinylated inhibitor (the “KRas Probe”, see Preparation 223).
Inhibitors are tested in dose response format from 10 mM stocks in 100% DMSO. The Labycyte Echo® 555 is used to dilute and transfer 100 nL per well containing a 10 point, 2.8-fold serial dilution to an assay plate. Two copies of the assay plate are prepared to measure the potency after 5 and 60 minutes incubation of the inhibitor with KRas G12C. His-tagged KRas G12C (20 nM) is added to the plates in assay buffer (20 mM Tris-HCl, pH 7.5, 0.01% TX-100, and 1 mM DTT). After 5 or 60 minutes incubation, 1 μM KRas Probe is added and allowed to covalently modify free KRas G12C for 1 hour. This is diluted 4-fold in buffer containing Eu Anti-His antibody and Streptavidin-Coated Tracer 647 (both from Life Technologies) to achieve KRas G12C (5 nM), Anti-His Antibody (2 nM), KRas Probe ([…]), and Streptavidin Coated Tracer 647 (500 nM). After 30 minutes, the fluorescent signal is read on an Envision™ Plate Reader (excitation at 340 nm, tracer emission (em) at […], and antibody emission at 615 nm). Maximum control wells lack inhibitor and minimum control wells lack both inhibitor and KRas G12C. The signal ratio (em at 665/em at 615) is converted to percent inhibition using the following equation: % Inhibition=100−[(Test Compound Signal−Median Minimum Signal)/(Median Maximum Signal−Median Minimum Signal)×100]. The IC50 is determined by fitting the percent inhibition at each inhibitor concentration to the four parameter nonlinear logistic equation using Genedata Screener®: y=(A+((B−A)/(1+((C/x)∧D)))) where, y=% inhibition, A=minimum asymptote, B=maximum asymptote, C=relative IC50 or the inhibitor concentration producing 50% inhibition within the fitted range of both asymptotes, and D=Hill Slope. Compounds within the scope of this disclosure are evaluated in this assay substantially as described above.
For orientation: TR-FRET usually uses a lanthanide donor and a delayed reading to cut background.

The test system of assay [1] is constitutive RAS GTPase activity in human lung cancer cells H358. Briefly: H358 Cellular Active RAS GTPase ELISA. Type of assay: cell-based. The following applies: serum free media, incubated for 2 hours with compound. On the procedure:
Activated RAS (GTP-bound) in cell extracts specifically bind to the Raf-RBD. Bound RAS is detected with a primary antibody that recognizes human KRas. A secondary antibody conjugated with HRP recognizes the primary antibody and a development solution provides a chemiluminescent readout.
The next morning, 10 μL of serially-diluted (3-fold) test compounds (500 μM top concentration) and 10 μL of controls (Maximum signal wells: 5% DMSO and Minimum signal wells: 500 μM 1-[4-[6-chloro-8-fluoro-7-(3-hydroxy-1-naphthyl)quinazolin-4-yl]piperazin-1-yl]prop-2-en-1-one, WO2015054572 as an inhibitor) are added to the cell plate and incubated for 2 hours at 37° C./5% CO2. Complete Lysis/Binding Buffer is prepared containing Protease Inhibitor cocktail and GST-Raf-RBD and stored on ice. One hour before cell plate incubation is completed, 50 μL of GST-Raf-RBD is diluted in lysis/binding buffer, and buffer is added to the ELISA assay plate and which is incubated for 1 hour at 4° C. with gently rocking. After 2 hours, the cells are washed with 100 μL ice-cold PBS and lysed with 100 μL lysis/binding buffer. The cell plate is shaken for 10 minutes at ambient temperature. The cell plate is then centrifuged at 1500 rpm for 10 minutes at ambient temperature. During this time, 1×Wash Buffer is prepared at ambient temperature and then is used to wash (3×100 μL) the GST-Raf-RBD coated assay plate. After washing, 50 μL of cell lysate is added to the GST-Raf-RBD coated assay plate and incubated for 1 hour at ambient temperature with gentle shaking. During this incubation period, 1×Antibody Binding Buffer is prepared and brought to ambient temperature. The assay plate is washed 3×100 μL with 1×Wash Buffer and then 50 μL of Primary Antibody (diluted 1:500 in 1×Antibody Binding buffer) is added. The plate is incubated for 1 hour at ambient temperature. The assay plate is washed 3×100 μL with 1×Wash Buffer and then 50 μL of Secondary Antibody (diluted 1:5000 in 1×Antibody Binding buffer) is added and incubated for 1 hour at ambient temperature. The assay plate is washed 4×100 μL with 1×Wash buffer and then 50 μL of chemiluminescent working solution is added at ambient temperature. The assay plate is then read on an EnVision™ Plate Reader (Perkin Elmer) using a luminescence program.
The signal is converted to percent inhibition using the following equation: % Inhibition=100−[(Test Compound Signal−Median Minimum Signal)/(Median Maximum Signal−Median Minimum Signal)×100]. The Maximum signal is a control well without inhibitor.
(§1) Compounds within the scope of this disclosure are evaluated in this assay substantially as described above.

In assay [2] the test system is phosphorylation of p-ERK1/2 in human lung cancer cells H358. The assay is described as follows: H358 Cellular Phospho-ERK AlphaLISA. Format: cell-based. The following applies: incubated for 2 hours with compound, p-ERK 1/2 (Thr202/Tyr204). On the procedure:
Briefly, the AlphaLISA® SureFire® Ultra™ p-ERK 1/2 (Thr202/Tyr204) assay is a sandwich immunoassay for quantitative detection of phospho-ERK 1/2 (phosphorylated on Thr202/Tyr204 in ERK1, or Thr185/Tyr187 in ERK2) in cellular lysates using Alpha Technology (Perkin Elmer Cat #ALSU-PERK-A50K).
The next morning, 10 μL of serially-diluted (3-fold) test compounds (50 μM top concentration) and 10 μL of controls (Maximum signal wells: 5% DMSO and Minimum signal wells: 2 μM of N-(3-{3-cyclopropyl-5-[(2-fluoro-4-iodophenyl)amino]-6,8-dimethyl-2,4,7-trioxo-3,4,6,7-tetrahydropyrido[4,3-D]pyrimidin-1(2H)-yl}phenyl)acetamide (trametinib, as a positive control) are added to the cell plate and incubated for 2 hours in humid trays at 37° C./5% CO2. Lysis Buffer is prepared at ambient temperature containing a protease and phosphatase inhibitor cocktail. Culture medium is removed by inverting and shaking the cell plate in the sink and then blotting onto a paper towel. Lysis buffer is added to the cell plate (50 μL per well) and the plate is incubated at ambient temperature for 10 minutes on a shaker. For p-ERK detection, acceptor beads are diluted into a suspension mixture with buffer. Using a STARlet liquid handler, 5 μL of acceptor beads and 2 μL of cell lysate are transferred as a single-step in-tip dilution to a 384 well assay plate. The assay plate is sealed with foil and is incubated at ambient temperature for 2 hours. Donor beads are diluted into a suspension mixture with buffer. Using the STARlet, 5 μL of donor beads are added to the assay plate that is then sealed, wrapped with foil. The plate is incubated at ambient temperature for 2 hours in the dark. The assay plate is then read on an EnVision™ Plate Reader (Perkin Elmer) using a luminescence program.
The signal is converted to percent inhibition using the following equation: % Inhibition=100−[(Test Compound Signal−Median Minimum Signal)/(Median Maximum Signal−Median Min Signal)×100]. The Maximum signal is a control well without inhibitor.
as §1

Setting [3] is: 5 minutes incubation of the inhibitor with His-tagged KRas G12C before KRas Probe, read-out: IC50 (nM) @ 5 min.
Where [4] appears, read: 60 minutes incubation of the inhibitor with His-tagged KRas G12C before KRas Probe, read-out: IC50 (nM) @ 60 min.

Chain of KRas G12C (P01116 1-188 isoform P01116-2 G12C): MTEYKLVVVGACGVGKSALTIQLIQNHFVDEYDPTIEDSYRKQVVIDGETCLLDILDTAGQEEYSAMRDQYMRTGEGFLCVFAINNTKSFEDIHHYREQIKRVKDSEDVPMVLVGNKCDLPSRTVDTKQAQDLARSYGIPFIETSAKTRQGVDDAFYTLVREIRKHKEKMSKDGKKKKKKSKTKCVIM

As a reminder, the IC50 is the concentration at which inhibition is half-maximal. For `C=CC(=O)N1CCN2C(=O)c3cc(F)c(-c4ccc(F)c5sc(N)c(C#N)c45)c(Cl)c3OCC[C@H]2C1` (single isomer, unassigned) [Example 5], the IC50 on KRas G12C (setting [3]) came to 3270 nM; at KRas G12C (setting [4]), 3250 nM; in assay [1], 1770 nM; in assay [2], 330 nM.

Take `C=CC(=O)N1CCN2C(=O)c3cc(F)c(-c4ccc(F)c5sc(N)c(C#N)c45)c(Cl)c3OC[C@H]2C1` (single isomer, unassigned) [Example 7]: the IC50 at KRas G12C (setting [3]) worked out at 26900 nM; on KRas G12C (setting [4]), 17900 nM; in assay [1] (read-out: IC50), 23800 nM; in assay [2], 2980 nM.

In the case of `C=CC(=O)N1CCN2C(=O)c3cc(Cl)c(-c4ccc(F)c5sc(N)nc45)c(Cl)c3OCC[C@H]2C1` (single isomer, unassigned) [Example 1], the IC50 on KRas G12C (setting [3]) worked out at 18600 nM; on KRas G12C (setting [4]) it was 16000 nM; in assay [1] (read-out: IC50), 14400 nM; in assay [2] it was 2460 nM.

With `C=CC(=O)N1CCN2C(=O)c3cc(F)c(-c4ccc(F)c5sc(N)c(C#N)c45)c(Cl)c3OCC[C@H]2C1` (single isomer, unassigned) [Example 6], the IC50 at KRas G12C (setting [3]) is less than 15 nM; at KRas G12C (setting [4]) it was less than 15 nM; in assay [1], 3.31 nM; in assay [2] it was 0.649 nM. The “IC50 concentrations relative to Examples 1, 3, 5, and 7 (the P atropisomer designations)” value at KRas G12C is “superior IC50 concentrations”.

Take `C=CC(=O)N1CCN2C(=O)c3cc(F)c(-c4ccc(F)c5sc(N)c(C#N)c45)c(Cl)c3OC[C@H]2C1` (single isomer, unassigned) [Example 8]: the IC50 is less than 15 nM at KRas G12C (setting [3]), less than 15 nM on KRas G12C (setting [4]), 4.62 nM in assay [1] (read-out: IC50) and 0.902 nM in assay [2]. In addition, the “IC50 concentrations relative to Examples 1, 3, 5, and 7 (the P atropisomer designations)” value on KRas G12C is recorded as “superior IC50 concentrations”.

Regarding `C=CC(=O)N1CCN2C(=O)c3cc(Cl)c(-c4ccc(F)c5sc(N)nc45)c(Cl)c3OCC[C@H]2C1` (single isomer, unassigned) [Example 2], the IC50 at KRas G12C (setting [3]) is less than 15 nM; at KRas G12C (setting [4]), less than 15 nM; in assay [1] (read-out: IC50), 6.71 nM. The “IC50 concentrations relative to Examples 1, 3, 5, and 7 (the P atropisomer designations)” value against KRas G12C is “superior IC50 concentrations”.

For `C=CC(=O)N1CCN2C(=O)c3cc(F)c(-c4cccc5sc(N)c(C#N)c45)c(Cl)c3OCC[C@H]2C1` (single isomer, unassigned) [Example 4], the IC50 was less than 15 nM on KRas G12C (setting [3]), less than 15 nM on KRas G12C (setting [4]), 5.66 nM in assay [1] (read-out: IC50) and 1.31 nM in assay [2]. Also, the “IC50 concentrations relative to Examples 1, 3, 5, and 7 (the P atropisomer designations)” value against KRas G12C is “superior IC50 concentrations”.

Take `C=CC(=O)N1CCN2C(=O)c3cc(F)c(-c4cccc5sc(N)c(C#N)c45)c(Cl)c3OCC[C@H]2C1` (single isomer, unassigned) [Example 3]: the IC50 on KRas G12C (setting [3]) amounted to 451 nM; at KRas G12C (setting [4]), 843 nM; in assay [1] (read-out: IC50), 902 nM; in assay [2], 206 nM.
